Earlier results in US20240148709A1, “METHODS OF TREATING EYE PAIN AND EYE DISORDERS” (Aisa Pharma, Inc., priority 2022, published 2024).

Conditions: oral dosing; cited from earlier work

In the case of `CCOC(=O)C1=C(COCCN)NC(C)=C(C(=O)OC)C1c1ccccc1Cl` (stereo not shown) [amlodipine], the “time to achieve maximal plasma concentration (Tmax)” value is given as 10 h.
